What is called IC50 is the concentration that inhibits the measured activity by half. Read a low IC50 as greater potency in that assay.

In patent publication US7879885B2, “Thioalkeneamides as transketolase inhibitors” (Array Biopharma, Inc., priority 2004, dated 2011) one finds IC50 data, which are given here for 30 compounds.

The target in the assay is T1, HCT116 TK (cellular transketolase, colon carcinoma HCT116) (Homo sapiens, UniProt P29401).
T1 construct: endogenous in cells; host or cells: HCT116 colon carcinoma cells
T1 sequence (P29401 1-623): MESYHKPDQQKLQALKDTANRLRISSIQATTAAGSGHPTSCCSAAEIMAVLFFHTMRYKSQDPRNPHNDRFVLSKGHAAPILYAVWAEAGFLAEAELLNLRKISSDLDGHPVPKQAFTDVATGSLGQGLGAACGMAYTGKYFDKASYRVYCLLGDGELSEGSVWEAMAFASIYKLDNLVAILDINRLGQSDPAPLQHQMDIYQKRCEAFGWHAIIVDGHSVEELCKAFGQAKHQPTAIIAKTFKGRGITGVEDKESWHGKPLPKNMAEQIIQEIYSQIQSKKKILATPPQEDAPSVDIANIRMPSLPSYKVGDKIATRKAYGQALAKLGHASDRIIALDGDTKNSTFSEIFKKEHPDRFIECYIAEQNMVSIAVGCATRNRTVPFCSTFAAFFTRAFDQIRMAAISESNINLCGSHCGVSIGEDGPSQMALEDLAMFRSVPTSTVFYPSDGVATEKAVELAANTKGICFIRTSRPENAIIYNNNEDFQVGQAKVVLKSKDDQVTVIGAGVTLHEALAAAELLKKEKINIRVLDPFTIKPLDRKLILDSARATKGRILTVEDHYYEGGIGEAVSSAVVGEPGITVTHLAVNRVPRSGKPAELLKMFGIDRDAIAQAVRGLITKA
As to the kind of experiment: Cellular assay: transketolase activity in lysates of treated HCT116 cells. The class given is cell-based. To be noted: colon carcinoma HCT116, thiamine-free DMEM, 48 hours treatment, mean. As to the method:
Log-phase cells were trypsinized, washed and resuspended in thiamine-free DMEM. Optimization of the initial cell counts was carried out for each cell line prior to IC50 measurements. […] Using this initial cell count, IC50 could be monitored for six days.
Media containing 8,000 cells (95 μl) were used to seed individual wells in a 96-well clear-bottom cell cultured-treated sterile plate. Inhibitor compounds were dissolved in 100% DMSO as 10 mM solutions. Serial dilutions were then made in 100% DMSO to make up a 100× stock, then diluted to 20× in double-deionized H2O (ddH2O). Twenty-four hours after seeding, 5 μl of 20× inhibitor compound stock solution was added to the cells so that the final concentration of DMSO was 1%. Media were changed after 24 hours. Forty-eight hours after inhibitor compound treatment, the plates were inverted to remove media and blotted on a paper towel. The plates were then either subjected to enzymatic reactions immediately or were frozen at −20° C. for future assays.
Lysis buffer (20 mM HEPES, pH 7.5, 1 mM EDTA, 0.2 g/l Triton X-100® and 0.2 g/L sodium deoxycholate, supplemented with 1 mM DTT and 1 mM PMSF just before use, 80 μl) were added to each well of the assay plate and allow cell lysis at RT with shaking. Then 15 ul of 5× assay buffer containing final concentrations of 50 mM HEPES, 40 mM KCl, 2.5 mM MgCl2, 5 mM NaArsenate, 1 mM NAD, 2 unit/ml glyceraldehyde-3-phosphate dehydrogenase (GAPDH) was added to the 80 ul of lysate. Reaction kinetics were monitored on a fluorescent plate reader to allow any possible background activity via GAPDH to burn out. Then 5 ul of substrate mix containing final concentrations of 0.5 mM ribose-5-phosphate and 0.5 mM xylulose-5-phosphate was added to initiate the reaction. Monitor reaction kinetics were monitored using a fluorescent plate reader and the slope of the initial linear range was recorded as the velocity of the reaction (FU/min). Enzymatic inhibition was expressed as percent of control wells that were not treated with compounds. The values (y) were plotted as function of the log concentration (x) and fitted to a sigmoidal dose-response curve with variable slopes that bears the equation: y=bottom+(top−bottom)/(1+10^((log EC50-x)*hillslope)).
Turning to `CCC(C)SS/C(CCO)=C(/C)N(C=O)Cc1ccc(C)nc1N` (stereo not drawn), the IC50 came out at 253 nM.

On to `CC(=O)OCC/C(SCOC(=O)N(C)C)=C(\C)N(C=O)Cc1ccc(C)nc1N`, for which 26300 nM corresponded to half-maximal inhibition (IC50).

The compound `CCCSS/C(CCOP(=O)(OCC)OCC)=C(/C)N(C=O)Cc1ccc(C)nc1N` returned an IC50 of 1040 nM.

`CC(=O)OCC/C(SCOC(=O)C(C)(C)C)=C(\C)N(C=O)Cc1ccc(C)nc1N` returned an IC50 of 25 nM.

Compound `C/C(=C(\CCO)SS/C(CCO)=C(/C)N(C=O)Cc1ccc(Cl)nc1N)N(C=O)Cc1ccc(Cl)nc1N` returned a half-inhibitory concentration (IC50) of 5.27 nM.

`C/C(=C(\CCO)SSCCC(=O)O)N(C=O)Cc1ccc(C)nc1N` returned an IC50 of 52 nM.

`C/C(=C(\CCO)SS/C(CCO)=C(/C)N(C=O)Cc1ccc(C)nc1N)N(C=O)Cc1ccc(C)nc1N`: the concentration for half-maximal inhibition (IC50) was 10 nM.

For the compound `C/C(=C1\CCOC(=O)S1)N(C=O)Cc1ccc(C)nc1N`, the IC50 stood at 15 nM.

The compound `C/C(=C(\CCO)SCCS(=O)(=O)c1ccccc1)N(C=O)Cc1ccc(C)nc1N` displayed a concentration for half-maximal inhibition (IC50) of 1870 nM.

`CC(=O)Nc1nc(C)ccc1CN(C=O)/C(C)=C(/CCOC(C)=O)SCOC(=O)C(C)(C)C` yielded an IC50 of 2480 nM.

Take `CC(=O)OCC/C(SC(=O)c1ccccc1)=C(\C)N(C=O)Cc1ccc(C)nc1N`: the half-inhibitory concentration (IC50) is 108 nM.

As for `CCCSS/C(CCO)=C(/C)N(C=O)Cc1ccc(Cl)nc1N`, 7730 nM corresponded to half-maximal inhibition (IC50).

In turn, `Cc1ccc(CN(C=O)/C=C(/CCO)SS/C(=C\N(C=O)Cc2ccc(C)nc2N)CCO)c(N)n1` displayed a concentration for half-maximal inhibition (IC50) of 102000 nM.

In turn, `CC(=O)N(Cc1ccc(C)nc1N)/C(C)=C(/CCO)SS/C(CCO)=C(/C)N(Cc1ccc(C)nc1N)C(C)=O` returned an IC50 of 32 nM.

With `C/C(=C(\CCO)SCCN1CCCCC1)N(C=O)Cc1ccc(C)nc1N`, inhibition was half-maximal at 3700 nM (IC50).

Regarding `CC(=O)Nc1nc(C)ccc1CN(C=O)/C(C)=C(/CCOC(C)=O)SCOC(=O)N(C)C`, the IC50 stood at 19400 nM.

On to `CC(=O)OCC/C(SS/C(CCOC(C)=O)=C(/C)N(C=O)Cc1ccc(C)nc1N)=C(\C)N(C=O)Cc1ccc(C)nc1N`, for which the IC50 came out at 8 nM.

With `CNC(=O)OCS/C(CCO)=C(/C)N(C=O)Cc1ccc(C)nc1N`, the IC50 was 50 nM.

Regarding `CCOP(=O)(OCC)OCC/C(SC(=O)c1ccccc1)=C(\C)N(C=O)Cc1ccc(C)nc1N`, the IC50 was 7160 nM.

For `C/C(=C(\CCO)SS/C(CCO)=C(/C)N(C=O)Cc1cccnc1N)N(C=O)Cc1cccnc1N`, the IC50 amounted to 479 nM.

The compound `CC(=O)OCC/C(SC(C)=O)=C(\C)N(C=O)Cc1ccc(C)nc1N` displayed a concentration for half-maximal inhibition (IC50) of 50 nM.

Compound `C/C(=C(\CCO)SSCC1CCCO1)N(C=O)Cc1ccc(C)nc1N` (stereo not drawn) gave a half-inhibitory concentration (IC50) of 24 nM.

`CCCSS/C(CCO)=C(/C)N(C=O)Cc1ccc(C)nc1N` returned a half-maximal inhibitory concentration (IC50) of 25 nM.

`CCCCS/C(CCO)=C(/C)N(C=O)Cc1ccc(C)nc1N` returned an IC50 of 6460 nM.

Compound `C/C(=C(\CCO)SCOC(=O)N(C)C)N(C=O)Cc1ccc(C)nc1N` came in with an IC50 of 507 nM.

Compound `C/C(=C(\CCO)SSCCO)N(C=O)Cc1ccc(C)nc1N` registered an IC50 of 13 nM.

Take `C/C(=C(\CCO)SSCCN1CCCC1)N(C=O)Cc1ccc(C)nc1N`: the midpoint of inhibition, the IC50, lay at 198 nM.

Regarding `C/C(=C(\CCO)SSCCN1CCOCC1)N(C=O)Cc1ccc(C)nc1N`, the IC50 amounted to 70 nM.

Turning to `C/C(=C(\CCOC(=O)c1ccccc1)SC(=O)c1ccccc1)N(C=O)Cc1ccc(C)nc1N`, the midpoint of inhibition, the IC50, lay at 28 nM.

Regarding `C/C(=C(\CCO)SCOC(=O)C(C)(C)C)N(C=O)Cc1ccc(C)nc1N`, the midpoint of inhibition, the IC50, lay at 116 nM.
